Data taken from article PMC4466647, “Inhibition of non-small cell lung cancer (NSCLC) growth by a novel small molecular inhibitor of EGFR” (Oncotarget, 2015).

Target: EGFR (Homo sapiens, UniProt P00533)
Assay: in vitro EGFR kinase assay (Promega Kinase-Glo luminescence, […] ATP)
Assay type: biochemical

EGFR, sequence (P00533 25-1210): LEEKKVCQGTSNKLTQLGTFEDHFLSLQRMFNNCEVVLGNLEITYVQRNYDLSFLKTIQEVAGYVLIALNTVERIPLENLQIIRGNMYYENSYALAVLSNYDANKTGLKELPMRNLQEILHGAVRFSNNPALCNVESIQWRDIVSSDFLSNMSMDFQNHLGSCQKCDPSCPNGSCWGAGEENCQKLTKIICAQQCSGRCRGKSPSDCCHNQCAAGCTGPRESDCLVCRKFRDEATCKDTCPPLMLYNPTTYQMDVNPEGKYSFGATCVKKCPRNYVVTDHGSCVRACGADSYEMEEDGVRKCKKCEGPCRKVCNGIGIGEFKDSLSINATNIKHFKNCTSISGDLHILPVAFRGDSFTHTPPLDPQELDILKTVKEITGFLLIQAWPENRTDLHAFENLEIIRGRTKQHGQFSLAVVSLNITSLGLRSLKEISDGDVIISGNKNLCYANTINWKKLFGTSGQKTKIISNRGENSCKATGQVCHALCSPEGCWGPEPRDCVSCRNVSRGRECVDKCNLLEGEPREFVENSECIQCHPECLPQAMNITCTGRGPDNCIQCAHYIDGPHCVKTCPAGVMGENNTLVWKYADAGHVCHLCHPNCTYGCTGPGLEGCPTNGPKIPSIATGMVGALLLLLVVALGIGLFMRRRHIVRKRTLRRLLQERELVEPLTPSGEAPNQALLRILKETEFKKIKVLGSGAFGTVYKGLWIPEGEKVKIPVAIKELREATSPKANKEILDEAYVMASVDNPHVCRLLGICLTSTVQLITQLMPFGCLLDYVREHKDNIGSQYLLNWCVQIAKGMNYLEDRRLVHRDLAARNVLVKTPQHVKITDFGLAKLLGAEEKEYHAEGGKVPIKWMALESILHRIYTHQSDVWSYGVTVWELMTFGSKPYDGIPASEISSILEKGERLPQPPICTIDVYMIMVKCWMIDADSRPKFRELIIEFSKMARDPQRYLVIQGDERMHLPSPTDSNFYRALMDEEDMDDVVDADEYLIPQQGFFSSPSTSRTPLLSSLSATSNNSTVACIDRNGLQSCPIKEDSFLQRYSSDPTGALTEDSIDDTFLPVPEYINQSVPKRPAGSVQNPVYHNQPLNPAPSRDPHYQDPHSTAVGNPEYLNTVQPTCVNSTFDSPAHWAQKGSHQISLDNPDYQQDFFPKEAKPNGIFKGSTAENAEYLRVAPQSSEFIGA

IC50: ~0.043 µM
SMILES: O=C(Cc1ccccc1)N1CCc2c([nH]c3ccc(F)cc23)C1 [compound 308, WB-308]
